# Where a name gives a salt, the structure may show the parent alone.
# Target: T1, human A3AR (Homo sapiens, UniProt P0DMS8)
# T1 construct: expressed in transfected cells
# T1 sequence (P0DMS8 1-318): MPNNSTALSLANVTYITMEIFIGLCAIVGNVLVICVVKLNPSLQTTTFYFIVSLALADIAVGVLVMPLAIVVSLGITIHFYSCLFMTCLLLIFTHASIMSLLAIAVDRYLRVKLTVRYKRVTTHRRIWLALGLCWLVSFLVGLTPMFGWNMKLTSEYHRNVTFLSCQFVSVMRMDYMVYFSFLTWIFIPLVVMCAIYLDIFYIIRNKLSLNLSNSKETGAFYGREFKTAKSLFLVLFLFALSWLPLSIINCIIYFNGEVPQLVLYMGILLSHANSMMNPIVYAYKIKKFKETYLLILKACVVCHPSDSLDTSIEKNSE
# Test: LOPAC library primary screen: single concentration (10 μM) inhibition of 25 nM CA200645 binding, PHERAstar FS
# Conditions: not given
row,SMILES,% 25 nM CA200645 binding [%]
1,O=c1c(O)c(-c2ccc(O)cc2O)oc2cc(O)cc(O)c12 [Morin],72.1 ± 9.6
2,Cl.NC1(C(=O)O)CC1,88.3 ± 14.5
3,CNc1ncnc2c1ncn2[C@@H]1O[C@H](CO)[C@@H](O)[C@H]1O [N6-Methyladenosine],61.1 ± 11.7
4,C=CCn1c(=O)c2c(nc(-c3ccc(S(=O)(=O)O)cc3)n2C)n(C)c1=O,97.5 ± 9.3
5,"Ic1ccccc1CNC1C2CCN(CC2)C1C(c1ccccc1)c1ccccc1.O=C(O)C(=O)O [L-703,606 oxalate salt hydrate]",93.3 ± 4.4
6,O=C(NCCN1CCOCC1)c1ccc(Cl)cc1 [Moclobemide],97.8 ± 6.0
7,C1CNCCN1.COc1cc(C(O)CO)ccc1O.COc1cc(C(O)CO)ccc1O (stereo not shown) [MHPG piperazine],95.1 ± 7.6
8,O=C(CCNNC(=O)c1ccncc1)NCc1ccccc1 [Nialamide],96.8 ± 7.4
9,O=C(O)/C=C\C(=O)O.O=C1/C(=C/c2ccccc2)C[C@@]2(O)[C@H]3Cc4ccc(O)c5c4[C@@]2(CCN3CC2CC2)[C@H]1O5 [BNTX maleate salt hydrate],109.9 ± 5.7
10,C[C@]12CCC(=O)C=C1CC[C@@H]1[C@@H]2C(=O)C[C@@]2(C)[C@H]1CC[C@]2(O)C(=O)CO [Cortisone],94.0 ± 5.3
11,COc1ccc2[n-]c([S@@+]([O-])Cc3ncc(C)c(OC)c3C)nc2c1.COc1ccc2[n-]c([S@@+]([O-])Cc3ncc(C)c(OC)c3C)nc2c1.O.O.[Mg+2] [Esomeprazole magnesium dihydrate],81.5 ± 16.8
12,CC(C)c1ccc2c(c1)c(SC(C)(C)C)c(CC(C)(C)C(=O)O)n2Cc1ccc(Cl)cc1 [MK-886],98.7 ± 12.2
13,Cl.NC[C@@H]1O[C@H](C23CC4CC(CC(C4)C2)C3)Cc2c1ccc(O)c2O [A-77636 hydrochloride],87.3 ± 8.5
14,Br.CN1Cc2sccc2C(c2ccc(O)c(O)c2)C1 (stereo not shown) [SKF-89145 hydrobromide],97.3 ± 9.6
15,"C#CCn1c(=O)c2c(ncn2C)n(C)c1=O [3,7-Dimethyl-1-propargylxanthine]",94.8 ± 1.8
16,NC(N)=Nc1ccc2[nH]c3c(c2c1)C[C@@]1(O)[C@H]2Cc4ccc(O)c5c4[C@@]1(CCN2CC1CC1)[C@H]3O5.O=C(O)C(F)(F)F.O=C(O)C(F)(F)F,93.9 ± 7.0
17,Oc1ccc2c3c1O[C@H]1c4[nH]c5ccccc5c4C[C@@]4(O)[C@@H](C2)N(CC2CC2)CC[C@]314 [Naltrindole hydrochloride],111.0 ± 9.1
18,CCN1/C(=C/C(C)=O)Sc2ccc(OC)cc21 [TG003],77.3 ± 17.0
19,Cc1[nH]c(=O)c(C#N)cc1-c1ccc2nccn2c1.Cl [Olprinone hydrochloride],100.7 ± 4.5
20,Br.Cc1cccc(C2CN(C)CCc3c2cc(O)c(O)c3Cl)c1 (stereo not shown) [SKF 83959 hydrobromide],97.9 ± 6.2
21,CC(C)(Sc1ccc(CCN(CCCCC2CCCCC2)C(=O)NC2CCCCC2)cc1)C(=O)O [GW7647],55.8 ± 12.2

row,SMILES,% 25 nM CA200645 binding [%]
1,"CCCCCCCCCCC/C=C\C(C)(C)/C=C\CCCC(=O)O [7,7-Dimethyl-(5Z,8Z)-eicosadienoic acid]",100.3 ± 12.4
2,Cc1cc(O)c2c(c1)C(=O)c1cc(O)cc(O)c1C2=O [Emodin],52.8± 4.4
3,CN[C@H]1CC[C@@H](c2ccc(Cl)c(Cl)c2)c2ccccc21 [Sertraline hydrochloride],101.1 ± 11.7
4,Cc1cccc(C)c1NC(=O)C(C)N (stereo not shown) [Tocainide hydrochloride],102.0 ± 15.0
5,COc1ccc(C(=O)NCc2cccnc2)cc1C(=O)NCc1cccnc1 [Picotamide],109.0 ± 15.4
6,Cl.c1ccc(CN(CC2=NCCN2)c2ccccc2)cc1 [Antozoline hydrochloride],97.0 ± 6.0
7,CNC(=O)c1cc2c(cn1)[nH]c1ccccc12 [N-Methyl-beta-carboline-3-carboxamide],84.9 ± 8.4
8,CCCNC(C)C(=O)Nc1ccccc1C (stereo not shown) [Prilocaine hydrochloride],106.9 ± 9.7
9,CSc1nc(N)c2ncn([C@@H]3O[C@H](COP(=O)([O-])OP(=O)([O-])OP(=O)([O-])[O-])[C@@H](O)[C@H]3O)c2n1.[Na+].[Na+].[Na+].[Na+],99.0 ± 0.7
10,[N-]=[N+]=Nc1ccc(C(=O)CSC[C@H](NC(=O)CC[C@H](N)C(=O)O)C(=O)NCC(=O)O)cc1 [S-(p-Azidophenacyl)glutathione],82.4 ± 8.6
11,CCn1nc(C(=O)O)c(=O)c2cc3c(cc21)OCO3 [Cinoxacin],96.9 ± 2.7
12,Cc1cccc(C)c1N=C1NCCCS1 [Xylazine hydrochloride],106.3 ± 5.8
13,CN1CC(=O)NC1=NC(=O)Nc1cccc(Cl)c1 [Fenobam],81.9 ± 15.0
14,C/C(=C\c1ccc(C(=O)O)cc1)c1ccc2c(c1)C(C)(C)CCC2(C)C [TTNPB],92.9 ± 11.5
15,C[C@H](CS)C(=O)N1CCC[C@H]1C(=O)O [Captopril],97.2 ± 6.3
16,CC(=O)NCCc1c[nH]c2ccccc12 [N-Acetyltryptamine],99.0 ± 14.1
17,"CCCn1c(=O)c2c(ncn2C)n(CCC)c1=O [1,3-Dipropyl-7-methylxanthine]",102.9 ± 21.6
18,"C[N+]1(C)[C@@H]2CC(OC(=O)[C@H](CO)c3ccccc3)C[C@H]1[C@@H]1O[C@@H]12.O=[N+]([O-])[O-] (single isomer, unassigned; (-)) [(-)-Scopolamine methyl nitrate]",89.5 ± 24.4
19,NC(=O)CI [Iodoacetamide],101.9 ± 8.2
20,NC(=O)CN1CC(O)CC1=O (stereo not shown) [Oxiracetam],97.9 ± 12.4
21,"CCCN1CCOC2c3cc(O)ccc3OCC21.Cl (racemic) [(±)-PD 128,907 hydrochloride]",103.2 ± 2.1

row,SMILES,% 25 nM CA200645 binding [%]
1,CC[C@@H](CO)NC(=O)[C@@H]1C=C2c3cccc4c3c(cn4C)C[C@H]2N(C)C1 [Methysergide maleate],92.3 ± 21.2
2,CC(=O)Nc1nnc(S(N)(=O)=O)s1 [Acetazolamide],92.4 ± 4.0
3,Nc1ncnc2c1nc(Sc1ccc(Cl)cc1)n2C1OC2COP(=O)(O)OC2C1O (stereo in doubt) [8-(4-Chlorophenylthio)-cAMP sodium],91.8 ± 2.6
4,Cl.c1ccc([C@H]2CN3CCSC3=N2)cc1 [(-)-Tetramisole hydrochloride],112.9 ± 6.8
5,O=C1C=CC(=O)C=C1 [p-Benzoquinone],85.9 ± 13.7
6,CC(C)C(=O)Nc1ccc([N+](=O)[O-])c(C(F)(F)F)c1 [Flutamide],84.4 ± 23.0
7,N[C@H](C(=O)O)[C@H](Cc1ccccc1)C(=O)O [L-Beta-threo-benzyl-aspartate],95.9 ± 9.2
8,O=C([O-])c1cc2cc(Cc3cccnc3)ccc2o1.[Na+] [Furegrelate sodium],89.9 ± 4.6
9,COc1ccc2cc([C@H](C)C(=O)[O-])ccc2c1.[Na+] [(-)-Naproxen sodium],97.8 ± 4.0
10,Cn1cnc2c(NCc3ccccc3)nc(NCCO)nc21 [Olomoucine],97.0 ± 10.1
11,C=CCN1C[C@H](C)N([C@H](c2ccc(C(=O)N(CC)CC)cc2)c2cccc(OC)c2)C[C@H]1C [SNC80],94.8 ± 9.3
12,CC(C)Oc1cccnc1N(C)C1CCN(Cc2ccccc2)CC1.O=C(O)/C=C\C(=O)O [U-101958 maleate],102.1 ± 9.0
13,CC[C@H]1OC(=O)[C@H](C)[C@@H](O[C@H]2C[C@@](C)(OC)[C@@H](O)[C@H](C)O2)[C@H](C)[C@@H](O[C@@H]2O[C@H](C)C[C@H](N(C)C)[C@H]2O)[C@](C)(O)C[C@@H](C)CN(C)[C@H](C)[C@@H](O)[C@]1(C)O [Azithromycin dihydrate],98.9 ± 6.9
14,CS(=O)(=O)c1cccc(CNc2nc(Nc3ccc4c(c3)CCC(=O)N4)ncc2C(F)(F)F)c1 [PF-573228],54.7 ± 30.2
15,N#CC(=C(/N)Sc1ccccc1N)/C(C#N)=C(/N)Sc1ccccc1N [U0126],97.2 ± 19.0
16,C[N+]1(C)CCC(OC(=O)C(c2ccccc2)c2ccccc2)CC1.[I-] [4-DAMP methiodide],84.9 ± 19.8
17,C[C@@]1(C2CCCC2)Cc2cc(OCC(=O)O)c(Cl)c(Cl)c2C1=O [R(+)-IAA-94],95.5 ± 13.0
18,CN1C[C@H](O)[C@@H](O)[C@H](O)[C@H]1CO [N-Methyl-1-deoxynojirimycin],100.7 ± 20.9
19,Cl.N=C(N)c1ccc(CS(=O)(=O)F)cc1,98.9 ± 8.1

# Same assay, conditions: 10 μM compound, 25 nM CA200645, A3AR CHO cells
row,SMILES,hit in LOPAC primary screen (inhibited the binding of CA200645 by >40%)
1,"CCOC(=O)c1cnc2c(cnn2CC)c1NN=C(C)C [etazolate hydrochloride, reference compound]",identified

# Same assay, conditions: % of control wells (1% DMSO and 25 nM CA200645); compounds at 10 µM; whole live cells expressing the A3AR; mean ± SD, three experiments in duplicate
row,SMILES,% 25 nM CA200645 binding [%]
1,C=C1C(=O)O[C@H]2[C@H]1CC/C(C)=C/CC[C@@]1(C)O[C@@H]21 [Parthenolide],98.5 ± 15.3
2,"CCOC(=O)c1cnc2c(cnn2CC)c1NN=C(C)C [etazolate hydrochloride, reference compound]",46.2 ± 5.3
3,O=c1c(-c2ccc(O)cc2)coc2cc(O)cc(O)c12 [Genistein],66.1 ± 12.2

# Same assay, conditions: compounds tested at 10 µM; % of control wells (1% DMSO and 25 nM CA200645); whole live cells expressing the A3AR; mean ± SD, three experiments in duplicate
row,SMILES,% 25 nM CA200645 binding [%]
1,CC1(C)CCC(NC(=O)[C@@H](N)CCC(=O)O)CC1 [CR 2249],109.1 ± 19.6
2,NC(N)=NCCCCN=C(N)N [Arcaine sulfate],96.1 ± 6.4
